The record followed here is publication PMC9090388, “Design, synthesis, biological evaluation and QSAR analysis of novel N-substituted benzimidazole derived carboxamides” (Journal of Enzyme Inhibition and Medicinal Chemistry, 2022).

Several values for one entry are separate records, joined by “and”; a condition that tells them apart may be missing. Equal entries are not always repeated.

In data set [1] the test system is MCF-7 (breast carcinoma). Kind of data set: Antiproliferative activity in vitro, MTT, 72 h. The settings on record: Homo sapiens, MCF7, concentration that causes 50% growth inhibition. It is filed as cell-based. The method, then: (§1) The experiments were performed on four human cell lines, including HCT 116 (colon carcinoma), H 460 (lung carcinoma), MCF-7 (breast carcinoma) and HEK 293 (human embryonic kidney cells), in line with previously published experimental procedures[10]^,[25]. Briefly, the cells were grown in DMEM medium with the addition of 10% foetal bovine serum (FBS), 2 mM L-glutamine, 100 U/mL penicillin and 100 µg/mL streptomycin, and cultured as monolayers at 37 °C in a humidified atmosphere with 5% CO2. Cells were seeded at 2 × 10^3 cells/well in a standard 96-well microtiter plates and left to attach for 24 h. Next day, a test compound was added in five serial 10-fold dilutions. The rate of cell growth was evaluated after 72 h of incubation with MTT reagent. The obtained results are expressed as IC50 values, calculated from the concentration-response curves using linear regression analysis by fitting the test concentrations that give PG values above and below the reference value (i.e. 50%). Each test was performed in quadruplicate in at least two individual experiments.

The subject of data set [2] is HCT116 (colon carcinoma). Kind of data set: Antiproliferative activity in vitro, MTT, 72 h. It is filed as cell-based. The note with it: Homo sapiens, HCT-116, 72 h, concentration that causes 50% growth inhibition. The method, then: as §1
The subject of data set [3] is H 460 (lung carcinoma). Kind of data set: Antiproliferative activity in vitro, MTT, 72 h. The class given is cell-based, human. The note with it: Homo sapiens, NCI-H460, 72 h, concentration that causes 50% growth inhibition; 72 h, MTT. The method, then: as §1
Data set [4] is described as follows: DPPH free radical scavenging (reducing activity of the stable radical DPPH). The note with it: DPPH 50 µM in absolute ethanol; – = did not show any DPPH activity. It is filed as biochemical. On the procedure:
The reducing activity of investigated systems was achieved by the DPPH method according to previously described procedures with modifications to assure the use in a 96-well microplate. Briefly, equal volumes of various concentrations of tested molecules (dissolved in DMSO) were added to the solution of DPPH (final concentration 50 µM in absolute ethanol). Ethanol and DMSO were used as control solutions in line with earlier reports.[27]
For orientation: Loss of DPPH colour is used to gauge radical scavenging.

The test system of data set [5] is HEK 293 (human embryonic kidney cells). Kind of data set: Antiproliferative/cytotoxic activity in vitro on non-tumour cells, MTT, 72 h. The class given is cell-based. The settings on record: for IC50: Homo sapiens, HEK293, non-tumour cell line, concentration that causes 50% growth inhibition, 72 h, MTT. On the procedure: as §1
Data set [6] has as its system Nrf2. Kind of data set: Western blot analysis of Nrf2 in cytoplasmic and nuclear fraction. The class given is cell-based, human. The note with it: HCT116 cells, 1 h; 34 at 50 µM, 40 at 5 µM, hydrogen peroxide 4 mM. On the procedure: Cell line HCT116 was seeded in 60 mm cell culture dishes (TPP, Switzerland) in a concentration of 9 × 10^5 cells/dish. Next day, the cells were treated with 4 mM hydrogen peroxide as a positive control for ROS induction and with compounds 34 and 40 (50 µM and 5 µM, respectively) for 1 h. Nuclear extracts from the cells were prepared using nuclear extraction buffer kit (Abcam, Cambridge, UK, ab113474) according to the manufacturer instructions. BCA assay (Sigma Aldrich, Taufkirchen, Germany) was performed for the determination of the protein concentration in nuclear and cytoplasm fractions. Denaturation of 1 μg of total proteins in Laemmli SDS loading buffer was performed at 95 °C for 5 min. After loading, 10% SDS poly-acrylamide gel electrophoresis was carried out and then proteins were transferred to nitrocellulose membranes. Afterwards, the membranes were blocked in blocking buffer (ImmobilonBlock – CH (Chemiluminescent Blocker), MerckKGaA, Darmstadt, Germany) and incubated 5 h at room temperature with primary antibody dissolved in ImmobilonBlock – CH (Chemiluminescent Blocker). After the membranes were washed three times for five minutes each with Tris-buffered saline with 0.5% Tween 20 (TBST), they were incubated in the corresponding secondary antibody for 1 h at room temperature or overnight at 4 °C. After washing with TBST, the membranes were processed for enhanced chemiluminescence (ECL) Clarity Max Western ECL Substrate (Bio-Rad Laboratories, Hercules, CA, USA) and captured using Odyssey Fc (LICOR, Bad Homburg, Germany). The primary antibody used was anti-Nrf2, (dilution 1:500, Anti-Nrf2 antibody: ab133347, Abcam), Histon H3 (dilution 1:2000, Anti-H3 antibody: Ab1791, Abcam), β-actin (dilution 1:500, sc-47778, Santa Cruz Biotechnology) and corresponding secondary HRP-conjugated IgG antibody (dilution 1:2000, mouse IgGκ, Santa Cruz Biotechnology).
Figure 5. Nrf2 protein levels in the cytoplasmic and the nuclear fraction of HCT116 cells, assessed by Western blot analysis. […]
Background: Immunoblotting shows a protein as a band on a membrane.

Data set [7] in a line: Ferric reducing/antioxidant power (FRAP assay). The class given is biochemical. The settings on record: triplicate; – = not active in the FRAP assay. The method, then: The FRAP method was carried out according to previously described procedures with some modifications to be compatible with an assay on a 96-well microplate. All results were expressed as Fe^2+ equivalents (Fe^2+ µmol).

`COc1ccc(C(=O)Nc2nc3ccc(C#N)cc3n2C)c(OC)c1` [Compound 34, N-(6-Cyano-1-methyl-1H-benzo[d]imidazol-2-yl)-2,4-dimethoxybenzamide]: the IC50 (usually the concentration that gives 50% inhibition) in data set [1] is 46.9 ± 35.4 µM; in data set [2], 47.6 ± 30 µM; in data set [3], 21.9 ± 2.9 µM; in data set [4], ~5680 µM and 5680 µM; in data set [5], 93.3 ± 2.3 µM. Besides, the “translocation of Nrf2 to the nucleus (nuclear expression of Nrf2)” value (“translocation of Nrf2 to the nucleus” for short) in data set [6] is recorded as “did not promote the translocation of Nrf2 to the nucleus”. Also, in data set [7], the FRAP was 618.10 mmolFe^2+/mmolC and 618.10 ± 66.10 mmolFe^2+/mmolC.
`CC(C)Cn1c(NC(=O)c2ccccc2)nc2ccc(C#N)cc21` [Compound 40, N-(6-Cyano-1-isobutyl-1H-benzo[d]imidazol-2-yl)benzamide]: the IC50 was 2.2 ± 1.9 µM in data set [1], roughly 0.6 µM in data set [2], 11500 ± 1500 µM in data set [4] and 9.1 ± 1 µM in data set [5]. The “cytotoxicity towards non-tumour cell line compared with tumour cells” value in data set [5] (HEK 293 versus tumour cancer cells) was “significantly less cytotoxic towards non-tumour cell line HEK 293”. Moreover, in data set [6], the “translocation of Nrf2 to the nucleus” value is “did not promote the translocation of Nrf2 to the nucleus”. In data set [7], this compound displayed an FRAP of 203.50 ± 10.53 mmolFe^2+/mmolC.
Consider `OO` [hydrogen peroxide, reference compound], for which the “translocation of Nrf2 to the nucleus” value in data set [6] was “significantly higher in the nucleus”.
